The numbers were not newly measured in patent US20110104273A1, “GASTRIC RETENTIVE PHARMACEUTICAL COMPOSITIONS FOR IMMEDIATE AND EXTENDED RELEASE OF PHENYLEPHRINE” (DEPOMED, INC., priority 2009, published 2011), which cites them from elsewhere.

Test in series [1]: not given
The source holds these as a separate data set.

For series [2], the system named is cardiovascular system.

The structures appear in SMILES notation. Counter-ions that a name gives are not always drawn. Like-named read-outs stand apart in the source and are kept apart here.

Regarding `CNC[C@H](O)c1cccc(O)c1` [Phenylephrine HCl], the solubility in water entry is “freely soluble”.

On to `CNC[C@H](O)c1cccc(O)c1` [Phenylephrine, (R)-3-[-1-hydroxy-2-(methylamino)ethyl]phenol alcohol hydrochloride], for which, in series [1] (oral), the “absorption from the gut” value is “well absorbed” and the bioavailability result was “up to 38%”. The systemic bioavailability entry in series [1] (oral administration) is “around 40%”. Further, the “fraction of oral dose excreted unchanged in the urine” value in series [1] (oral dose) was “about 3%”. Also, in series [2] (administered orally in man), the “threshold dosage for any effects on the cardiovascular system” value was “about 50 mg”. Moreover, in series [2] (oral over-the-counter (OTC) doses), the “effects on the cardiovascular system” value is reported as “minimal effects”. Under “hydrochloride”, the solubility in water result is “highly soluble”.
